Data on 30 molecules can be found in patent US7229987B2, “Multicyclic compounds for use as melanin concentrating hormone antagonists in the treatment of obesity and diabetes” (Eli Lilly and Company, priority 2002, dated 2007).

The structures appear in SMILES notation.

Usually Kb stands for the affinity of an antagonist, worked out from how it opposes an agonist. Low values mean higher antagonist affinity, high ones lower antagonist affinity. What is called Ki is the dissociation constant of the complex between target and ligand, obtained from inhibition or displacement. High values mean a looser hold on the target, low ones a stronger hold on the target. A word on the melting point: it is the temperature, or range, at which the solid turns liquid.

Data set [1] deals with T1, human MCHR1 (Homo sapiens, UniProt Q99705).
T1 construct: The full-length cDNA for human MCHR1 was cloned from a human adult brain cDNA library; expressed in transfected cells; host or cells: AV12 cells previously transfected with Gα15
T1 sequence (Q99705 whole entry): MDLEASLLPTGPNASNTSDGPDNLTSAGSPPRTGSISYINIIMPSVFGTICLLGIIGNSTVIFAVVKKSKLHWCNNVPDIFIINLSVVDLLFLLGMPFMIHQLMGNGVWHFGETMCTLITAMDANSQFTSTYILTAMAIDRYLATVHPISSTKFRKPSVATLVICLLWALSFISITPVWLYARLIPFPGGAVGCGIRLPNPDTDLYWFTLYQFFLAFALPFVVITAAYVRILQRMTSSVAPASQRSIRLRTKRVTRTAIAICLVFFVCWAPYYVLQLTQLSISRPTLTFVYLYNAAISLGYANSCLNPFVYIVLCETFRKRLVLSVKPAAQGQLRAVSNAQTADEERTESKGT
Briefly: Inhibition of MCH-stimulated GTPγ35S binding to clone 43 membranes (functional antagonism). It is filed as biochemical. As to conditions: inhibition of GTPγ35S binding stimulated by 40 nM MCH (about EC90), Kb from IC50 by modified Cheng-Prusoff (Leff and Dougal), tested in duplicate. The source says:
(§1) The full-length cDNA for human MCHR1 was cloned from a human adult brain cDNA library (Edge Biosystems, Cat. 38356) by standard polymerase chain reaction (PCR) methodology employing the following primers: sense, 5′-GCCACCATGGACCT GGAAGCCTCGCTGC-3′; anti-sense, 5′-[…]-3′.
(§2) In order to generate cell lines stably expressing MCHR1, the insert was then subcloned into the Xba I and Not I sites of pcDNA(+)-3.1-neomycin (Invitrogen). After purification by Qiagen Maxi-prep kit (QIAGEN, Inc.), the plasmid was transfected by Fugene 6 (Roche Applied Science) into AV12 cells that had been previously transfected with the promiscuous G protein Gα15. The transfected cells were selected by
(§3) Both the ^125I-MCH binding and functional GTPγ^35S binding assays employed membranes isolated from a clone designated as clone 43. Typically, cells from 20 confluent T225 flasks were processed by washing the monolayers in cold phosphate-buffered saline (PBS), scraping the cells into same and re-suspending the cell pellet in 35 ml of 250 mM Sucrose, 50 mM HEPES, pH 7.5, 1 mM MgCl2, 24 μg/ml DNase I, and protease inhibitors (1 Complete® tablet, per 50 ml of buffer prepared, Roche Diagnostics). After incubation on ice for 5 min, cells were disrupted with 20–25 strokes of a Teflon/Glass homogenizer attached to an overhead motorized stirrer, and the homogenate was centrifuged at 40,000 rpm in Beckman Type 70.1 Ti rotor. The pellets were re-suspended in 250 mM Sucrose, 50 mM HEPES, pH 7.5, 1.5 mM CaCl2, 1 mM MgSO4 and protease inhibitors by Teflon/Glass homogenization to achieve a protein concentration of ˜3–5 mg/ml (Pierce BCA assay with Bovine serum albumin as standard).
Functional antagonism of MCH activity is assessed by measuring the ability of test compound to inhibit MCH-stimulated binding of GTPγ^35S to clone 43 membranes. Briefly, assays are carried out in Costar 3632 white opaque plates in a total volume of 200 μl containing 25 mM Hepes, pH 7.5, 5 mM MgCl2, 10 μg/ml saponin, 100 mM NaCl, 3 μM GDP, 0.3 nM GTPγ^35S, 40 nM MCH (approximately equal to EC90), 20 μg of clone 43 membranes, 1.0 mg of wheat germ agglutinin scintillation proximity assay beads (WGA-SPA beads, Amersham) and a graded dose of test compound. The plates are sealed and left for 16–18 hrs at 4° C. After a 1 hr delay to allow plates to equilibrate to ambient temperature, bound GTPγ^35S is determined by counting in a Microbeta Trilux (Wallac).
IC50 values (defined as the concentration of test compound required to reduce MCH-stimulated GTPγ^35S binding by 50%) are determined by fitting the concentration-response data to a 4-parameter model (max response, min response, Hill coefficient, IC50) using Excel. Kb values are calculated from IC50 values using a modification of the Cheng-Prusoff approximation as described by Leff and Dougal (Further concerns over Cheng-Prusoff analysis, Trends Pharmacol. Sci. 14: 110–112 (1993)) after verifying competitive antagonism by Schild analysis. The EC50 for MCH alone is determined independently. The MCHR1 binding and functional activities of 24 compounds in the oxadiazole series (tested in duplicate) are shown in Table 1
A general note: Binding of GTPγS marks nucleotide exchange on a G protein.

For data set [2], the target named is T1, human MCHR1. Briefly: 125I-MCH competitive binding assay (SPA) with clone 43 membranes. To be noted: competition with 125I-MCH, clone 43 membranes (AV12 cells expressing human MCHR1); Ki from IC50 by Cheng-Prusoff; tested in duplicate.
Excerpt: as §1, §2, §3
Aliquots were stored at −70° C. Binding of compounds to MCHR1 was assessed in a competitive binding assay employing ^125I-MCH, compound and clone 43 membranes. Briefly, assays are carried out in 96-well Costar 3632 white opaque plates in a total volume of 200 μl containing 25 mM HEPES, pH 7.5, 10 mM CaCl2, 2 mg/ml bovine serum albumin, 0.5% dimethyl sulfoxide (DMSO), 4 μg of clone 43 membranes, […] ^125I-MCH (NEN), 1.0 mg of wheat germ agglutinin scintillation proximity assay beads (WGA-SPA beads, Amersham) and a graded dose of test compound. Non-specific binding is assessed in the presence of 1 μM unlabeled MCH. Bound ^125I-MCH is determined by placing sealed plates in a Microbeta Trilux (Wallac) and counting after a 5 hr delay.
IC50 values (defined as the concentration of test compound required to reduce specific binding of ^125I-MCH by 50%) are determined by fitting the concentration-response data to a 4-parameter model (max response, min response, Hill coefficient, IC50) using Excel. Ki values are calculated from IC50 values using the Cheng-Prusoff approximation as described by Cheng et al. (Relationship between the inhibition constant (Ki) and the concentration of inhibitor which causes 50% inhibition (IC50) of an enzymatic reaction, Biochem. Pharmacol., 22: 3099–3108 (1973)). The Kd for ^125I-MCH is determined independently from a saturation binding isotherm.

Regarding `CN(C)C/C=C/c1ccc(-c2nnc(CSCCOc3ccccc3)o2)cc1`, the Kb on human MCHR1 [1] was found to be 11.6 nM. This molecule registered a Ki on human MCHR1 [2] of 3.7 nM.
On the same counts, the results for `CN(C)CCCOc1ccc(-c2cnc(CSCCOc3ccccc3)o2)cc1` are 15 nM and 4.3 nM.
`c1ccc(OCCSCc2ncc(-c3ccc(OCCN4CCCC4)cc3)o2)cc1` returned a Kb on human MCHR1 [1] of 12 nM. On human MCHR1 [2], this molecule registered a Ki of 5.8 nM.
In the same order, the values of `O=C(NCCN1CCCC1)Nc1ccc(-c2nnc(CSCCOc3ccccc3)o2)cc1` are 20 nM and 9 nM.
In the same order, the values of `c1ccc(OCCSCc2ncc(-c3ccc(OCCCN4CCCC4)cc3)o2)cc1` are 16.5 nM and 10.2 nM.
In the same order, the values of `CN(C)CCNC(=O)Nc1ccc(-c2nnc(CSCCOc3ccccc3)o2)cc1` are 16.2 nM and 10.4 nM.
As for `c1ccc(OCCSCc2ncc(-c3ccc(OCCN4CCCCC4)cc3)o2)cc1`, the Kb on human MCHR1 [1] came out at 7.3 nM. Affinity on human MCHR1 [2] was put at a Ki of 11.6 nM.
In the same order, the values of `CN1CCC[C@@H]1CCOc1ccc(-c2nnc(CSCCOc3ccccc3)o2)cc1` are 39.6 nM and 12.9 nM.
On the same counts, the results for `CN(C)CCOc1ccc(-c2cnc(CSCCOc3ccccc3)o2)cc1` are 9.4 nM and 13.3 nM.
With `CN(C)CCCOc1ccc(-c2nnc(CSCc3cc4ccccc4o3)o2)cc1`, the Kb on human MCHR1 [1] is 35.4 nM. Also, the Ki on human MCHR1 [2] was found to be 16.1 nM.
Regarding `c1ccc(OCCSCc2ncc(-c3ccc(OCCCN4CCCCC4)cc3)o2)cc1`, on human MCHR1 [1], the Kb was 15.9 nM. Also, the Ki at human MCHR1 [2] came to 17.9 nM.
On the same counts, the results for `CN(C)CCCOc1ccc(-c2nnc(CSCc3ccc4ccccc4c3)o2)cc1` are 50.6 nM and 22.4 nM.
At human MCHR1 [1], `CN(C)CCCOc1ccc(-c2coc(CSCCOc3ccccc3)n2)cc1` came in with a Kb of 41.5 nM. On human MCHR1 [2], this molecule had an inhibitory constant (Ki) of 35 nM.
For the molecule `CN(C)CCCOc1ccc(-c2nnc(CSCc3cc4ccccc4s3)o2)cc1`, the Kb at human MCHR1 [1] is 139 nM. Besides, affinity at human MCHR1 [2] was put at a Ki of 48.4 nM.
`CN(C)CCCOc1ccc(-c2nnc(CSCCOc3cccc4ccccc34)o2)cc1` [Example 278, [3-(4-{5-[2-(1-naphthoxy)-ethylsulfanylmethyl]-[1,3,4]oxadiazol-2-yl}-phenoxy)-propyl]-dimethyl-amine] had a melting point of 101 to 102 °C.
Still for that read-out and setting: next, `CN(C)CCCOc1ccc(-c2nnc(CSCCOc3ccc4ccccc4c3)o2)cc1` [Example 279, [3-(4-{5-[2-(2-naphthoxy)-ethylsulfanylmethyl]-[1,3,4]oxadiazol-2-yl}-phenoxy)-propyl]-dimethyl-amine]: 97 to 98 °C; `CN(C)CCCOc1ccc(-c2nnc(CSCCOC(C)(C)C)o2)cc1` [Example 280, (3-{4-[5-(2-tert-butoxy-ethylsulfanylmethyl)-[1,3,4]oxadiazol-2-yl]-phenoxy}-propyl)-dimethyl-amine]: 84.5 to 85.5 °C; `CN(C)CCCOc1c(Cl)cc(-c2nnc(CSCCOc3ccccc3)o2)cc1Cl.O=C(O)/C=C/C(=O)O` [Example 283, (3-{2,6-dichloro-4-[5-(2-phenoxy-ethylsulfanylmethyl)-[1,3,4]oxadiazol-2-yl]-phenoxy}-propyl)-dimethyl-amine; fumaric acid salt]: 95 to 99 °C.
`COc1cc(-c2nnc(CSCCOc3ccccc3)o2)ccc1OCCCN(C)C.O=C(O)/C=C\C(=O)O` [Example 284, (3-{2-methoxy-4-[5-(2-phenoxy-ethylsulfanylmethyl)-[1,3,4]oxadiazol-2-yl]-phenoxy}-propyl)-dimethyl-amine; maleic acid salt]: the melting point is 114 to 116 °C.
For `COc1cc(-c2nnc(CSCCOc3ccccc3)o2)cc(OC)c1OCCCN(C)C.O=C(O)/C=C\C(=O)O` [Example 285, (3-{2,6-dimethoxy-4-[5-(2-phenoxy-ethylsulfanylmethyl)-[1,3,4]oxadiazol-2-yl]-phenoxy}-propyl)-dimethyl-amine; maleic acid salt], the melting point was in the range of 103 to 104 °C.
For the molecule `CN(C)CCCOc1ccc(-c2nnc(CSCCOc3ccccc3)o2)cc1F.O=C(O)/C=C\C(=O)O` [Example 287, (3-{2-fluoro-4-[5-(2-phenoxy-ethylsulfanylmethyl)-[1,3,4]oxadiazol-2-yl]-phenoxy}-propyl)-dimethyl-amine; maleic acid salt], the melting point was 70 to 72 °C.
Still for that read-out and setting: the value for `CN(C)CCCOc1ccc(-c2nnc(CSCCOc3ccccc3)o2)cn1` [Example 288, dimethyl-(3-{5-[5-(2-phenoxy-ethylsulfanylmethyl)-[1,3,4]oxadiazol-2-yl]-pyridin-2-yloxy}-propyl)-amine] was 69 to 70 °C; that for `CN(C)CCCOc1ccc(-c2nnc(CSCCOc3ccccc3)o2)nc1` [Example 289, dimethyl-(3-{6-[5-(2-phenoxy-ethylsulfanylmethyl)-[1,3,4]oxadiazol-2-yl]-pyridin-3-yloxy}-propyl)-amine] was 47 to 49 °C; that for `CN1CCCC(COc2ccc(-c3nnc(CSCCOc4ccccc4)o3)cc2)C1.O=C(O)/C=C\C(=O)O` (stereo not drawn) [Example 290, 1-methyl-3-{4-[5-(2-phenoxy-ethylsulfanylmethyl)-[1,3,4]oxadiazol-2-yl]-phenoxymethyl}-piperidine; maleic acid salt] was 115 to 116 °C.
Molecule `CN1CCC(Oc2ccc(-c3nnc(CSCCOc4ccccc4)o3)cc2)CC1.O=C(O)/C=C\C(=O)O` [Example 291, 1-methyl-4-{4-[5-(2-phenoxy-ethylsulfanylmethyl)-[1,3,4]oxadiazol-2-yl]-phenoxy}-piperidine; maleic acid salt] displayed a melting point of 149 to 150 °C.
`CN1CCN(c2ccc(-c3nnc(CSCCOc4ccccc4)o3)cn2)CC1.O=C(O)/C=C\C(=O)O` [Example 293, 1-methyl-4-{5-[5-(2-phenoxy-ethylsulfanylmethyl)-[1,3,4]oxadiazol-2-yl]-pyridin-2-yl}-piperazine; maleic acid salt] registered a melting point of 146 to 147 °C.
`C(=C\c1ccc(-c2nnc(CSCCOc3ccccc3)o2)cc1)/CN1CCCC1` [drawing 38] yielded a Kb on human MCHR1 [1] of 6 nM. Also, at human MCHR1 [2], the Ki came out at 1.9 nM.
The molecule `CN(C)CCOc1ccc(-c2nnc(CSCCOc3ccccc3)o2)cc1` [drawing 41] gave an antagonist dissociation constant (Kb) at human MCHR1 [1] of 13.6 nM. The Ki on human MCHR1 [2] came to 5.3 nM.
On the same counts, the results for `O=C(NCCN1CCCCC1)Nc1ccc(-c2nnc(CSCCOc3ccccc3)o2)cc1` [drawing 42] are 14.7 nM and 5.6 nM.
On the same counts, the results for `c1ccc(OCCSCc2nnc(-c3ccc(OCCN4CCCCC4)cc3)o2)cc1` [drawing 45] are 19.8 nM and 9.2 nM.
